Assays:
[1] = Oral pharmacokinetics in rats; assay type: in vivo; conditions: Rat, 10 mg/kg
Method: The oral bioavailability of Compound A1 (free base) was evaluated in rats and mice. The protocol for the pharmacokinetics studies in rat is provided below.
All animals were fasted overnight (12 hours) before dosing and continued till 4.0 hours after administration of test item. Test item formulations were prepared in 1% Tween 80 and 99% media (0.5% Methyl cellulose, 4000cPs, pH 2.2). The blood samples (150 μL from each animal) were collected from the orbital sinus, and placed into a micro centrifuge tube containing disodium EDTA as an anticoagulant. Blood samples were centrifuged immediately with a speed of 1000 g for 10 min at 4° C. and separated plasma samples were frozen at below −80° C. and stored until analysis. The concentrations of test item in all formulations were analyzed by HPLC. The plasma concentrations of test item in all samples were analyzed by LC-MS/MS. Pharmacokinetic parameters (Cmax, AUC0-t, Tmax, and t^1/2) were estimated by using WinNonlin software. Results are provided in Table 3 for Compound A, A1, and Example 128 of WO 2012/151525 in rats and Compound A1 in mice.

[2] = Metabolic stability in mouse liver microsomes; assay type: in vitro ADME; conditions: 1 μM test item, 60 minutes, 37° C., NADPH
Method: Metabolic stability studies were conducted on Compounds A, A1, and A2 as well as Example 128 of WO 2012/151525 using mouse, rat, dog, monkey, and human liver microsomes. The protocol for the studies with mouse, rat, and human liver microsomes (all from BD Gentest, USA) is provided below. 0.4 mg protein was preincubated with 2 mM NADPH (cofactor) in phosphate buffer (pH-7.4) for 15 minutes at 37° C. and then added with 1 μM test item and incubated further for 60 minutes in triplicate. The reaction mixture was terminated with methanol containing an internal standard and centrifuged further to analyze the test item remaining in the supernatant by LC-MS/MS. The percent parent compound remaining was calculated in comparison with similar samples terminated at 0 minutes.

[3] = tested on: pAKT in isolated mouse splenocytes; experiment: Assay 6C: Inhibition of AKT phosphorylation in isolated mouse splenocytes; assay type: cell-based; conditions: Splenocyte, 0.5 h, LPS 20 μg/mL, 30 minutes, ELISA, read-out: EC50, reduction in phosphorylation of AKT
Method: The PI3K pathway is regulated downstream by AKT, a serine-threonine kinase that modulates several oncogenic processes such as cell proliferation, growth, and survival. Because the spleen is a repertoire for vast quantities of B- and T-lymphocytes, inhibition of LPS-induced AKT phosphorylation was determined ex vivo using isolated mouse splenocytes. Cells were plated and incubated with a desired concentration of Compound A1 for 15 minutes followed by induction with LPS (20 μg/mL) for 30 minutes. Following induction, cells were lysed and pAKT was determined by ELISA using pAKT^S473 capture/detection antibody pair and anti-mouse-HRP secondary antibody. Blank subtracted absorbance values were obtained to calculate percent inhibition of pAKT in test samples.

[4] = Plasma protein binding (equilibrium dialysis), rat; assay type: in vitro ADME; conditions: pH 7.4, 37° C.
Method: Below is provided the procedure for measuring plasma protein binding (using an equilibrium dialysis method). 745 μL of plasma was transferred into a 2 ml micro centrifuge tube. To that 5 μL of Compound A1 (150 μM) was added. Samples were mixed in the table top vortexer for 2 minutes. 50 μL plasma (n=2) was transferred in a pre-labeled 1.5 mL micro centrifuge tube treated as 0 hour sample.
The remaining 650 μL plasma sample were incubated for 30 minutes at 37° C. in a water bath. After 30 minute incubation, 50 μL plasma (n=2) was removed in a pre-labelled 1.5 mL micro centrifuge tube treated as 0.5 hour sample. 200 μL of the plasma sample (n=2) was transferred into the sample chamber which was indicated by the red ring. The red insert was placed into the base plate and 350 μL of buffer was transferred into the buffer chamber. Plates were incubated at 37° C. at approximately 100 RPM on an orbital shaker or 20 RPM on an up-and-down shaker for 4 hours. 50 μL of post dialysis-sample from the buffer and the plasma chambers were transferred into a pre-labelled micro centrifuged tube. 50 μL of plasma was added to the buffer samples and an equal volume of buffer (KH2PO4 Buffer pH 7.4) to the collected plasma samples. 150 μL of methanol containing internal standard (Tolbutamide 250 ng/ml) was added to precipitate the protein and release compound. […]

[5] = tested on: pAKT in T-lymphoma (MOLT-4, Jurkat, CCRF-CEM and Hut-78) cell lines; experiment: Assay 3: Inhibition of AKT phosphorylation in leukemic cell lines; assay type: cell-based; conditions: 48 hours, Western Blotting, range over the cell lines, read-out: EC50, reduction in pAKT expression
Method: MOLT-4, Jurkat, CCRF-CEM, and Hut-78 cells were incubated with desired concentrations of compound for 48 hours. Cells were lysed and pAKT determined by Western Blotting. Bands were quantified using ImageJ and normalized to actin.

TNFα = experiment: Assay 6A: Cytokine assay in human PBMC, LPS induced TNFα; assay type: cell-based; conditions: LPS 1 μg/ml, 6 hours, 2-3 independent experiments, read-out: EC50, antigen-induced TNFα
Method: The objective of this study was to assess the inhibitory potential of Compound A1 on antigen-induced cytokine release in human PBMC
• Heparinized human whole blood was diluted 1:1 with PBS, over laid on leukocyte separation medium and centrifuged at 400 g for 40 minutes. • Buffy layer was removed and washed with PBS • 0.15*10^6 of PBMCs were plated in 100 μl per well in RPMI media and incubated for 2 h. • 50 μl of 3× of the compound dilution in media was added and incubated for 15 min. • TNFα—induced with 50 μl of LPS in RPMI such that final concentration was 1 μg/ml. Supernatant was collected at 6 hours. • IL-2-induced with 50 μl of PHA in RPMI such that final concentration was 20 μg/ml. Supernatant was collected at 24 hours. • IL-4-induced with 50 μl of PHA in RPMI such that final concentration was 20 μg/ml.
EC50 values were calculated from 2-3 independent experiments.

- fold increase in AUC0-t as compared to Example 128 of WO 2012/151525 [1]: 48 fold
- fold increase in Cmax as compared to Example 128 of WO 2012/151525 [1]: ~16 fold
- fold increase in t1/2 as compared to Example 128 of WO 2012/151525 [1]: ~1.6 fold
- AUC(0-t) ([1]; plasma): 97.8 µM·h
- Cmax ([1]; plasma): 11.4 µM
- Tmax ([1]; plasma): 1.83 h
- half-life ([1]; plasma): 2.45 h
- Metabolic stability in liver microsomes (percent parent compound remaining), Mouse [2]: 85.9%
- EC50 [3]: 347 nM
- fraction unbound at 4 h, 1 μM [4]: 0.0096
- EC50 [5]: 20 to 1600 nM
- EC50 (TNFα): 7.1 nM
SMILES: COc1ccc(-c2nn([C@@H](C)c3oc4cccc(F)c4c(=O)c3-c3cccc(F)c3)c3ncnc(N)c23)cc1NS(C)(=O)=O [Compound A1, (S)—N-(5-(4-amino-1-(1-(5-fluoro-3-(3-fluorophenyl)-4-oxo-4H-chromen-2-yl)ethyl)-1H-pyrazolo[3,4-d]pyrimidin-3-yl)-2-methoxyphenyl)methanesulfonamide]

Source: patent US20190202836A1, “SELECTIVE DUAL INHIBITORS OF PI3 DELTA AND GAMMA PROTEIN KINASES” (Rhizen Pharmaceuticals SA, priority 2014, published 2019)
